In patent US10369138B2, “Monobactam organic compounds for the treatment of bacterial infections” (Novartis AG, priority 2014, dated 2019):
Converted amounts (≈) assume the structure as drawn. Where two headings read alike, the source gives them in different places.

Assays:
E. coli strain 25922 = test: MIC by broth microdilution, E. coli strain 25922; format: cell-based
How it was run: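 CLSI broth microdilution in cation-adjusted Mueller-Hinton broth, inoculum about 5×10^5 CFU/mL, 10% DMSO from the diluted series, 20 h at 35-37° C. MIC is the lowest concentration preventing visible growth, read by eye and at 600 nm.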

E. coli containing KPC-2 = test: MIC by broth microdilution, E. coli containing KPC-2 (Ec KPC2 Iso); format: cell-based; conditions: Escherichia coli, read-out: Ec KPC2 Iso (MIC), E. coli containing KPC-2 (carbapenemase from Klebsiella pneumoniae)
How it was run: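 Host E. coli BW25113 pspB carrying multicopy pBAD18-kan plasmid with constitutive TEM-promoter KPC-2 expression (periplasmic signal sequence); broth microdilution per CLSI in cation-adjusted Mueller-Hinton broth, inoculum ~5×10^5 CFU/mL, compounds twofold serially diluted from DMSO masters (10% DMSO in dilution series added).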

[1] = Escherichia coli, 25922, E. coli strain 25922, read-out: Ec 25922 (MIC)

| SMILES | MIC (E. coli strain 25922; [1]) [µg/mL] | MIC (E. coli containing KPC-2) [µg/mL] | MIC (E. coli strain 25922; Escherichia coli, 25922, read-out: Ec 25922 (MIC)) [µg/mL] |
| --- | --- | --- | --- |
| CC(C)(O/N=C(\C(=O)N[C@@H]1C(=O)N(S(=O)(=O)O)[C@@H]1Cn1cc(CO)nn1)c1csc(N)n1)C(=O)O [Example 47, 2-(((Z)-(1-(2-aminothiazol-4-yl)-2-(((2R,3S)-2-((4-(hydroxymethyl)-1H-1,2,3-triazol-1-yl)methyl)-4-oxo-1-sulfoazetidin-3-yl)amino)-2-oxoethylidene)amino)oxy)-2-methylpropanoic acid] | 2 (≈ 3.76 µM) | 5 (≈ 9.39 µM) |  |
| CNCCNCc1cnn(C[C@@H]2[C@H](NC(=O)/C(=N\OC3(C(=O)O)CC3)c3csc(N)n3)C(=O)N2S(=O)(=O)O)n1 [Example 117, 1-(((Z)-(1-(2-aminothiazol-4-yl)-2-(((2R,3S)-2-((4-(((2-(methylamino)ethyl)amino)methyl)-2H-1,2,3-triazol-2-yl)methyl)-4-oxo-1-sulfoazetidin-3-yl)amino)-2-oxoethylidene)amino)oxy)cyclopropanecarboxylic acid] | 0.5 (≈ 0.852 µM) | 1 (≈ 1.7 µM) |  |
| CC(C)(O/N=C(\C(=O)N[C@@H]1C(=O)N(S(=O)(=O)O)[C@@H]1CN1CCN(CCN)C1=O)c1csc(N)n1)C(=O)O [Example 70, 2-(((Z)-(2-(((2R,3S)-2-((3-(2-aminoethyl)-2-oxoimidazolidin-1-yl)methyl)-4-oxo-1-sulfoazetidin-3-yl)amino)-1-(2-aminothiazol-4-yl)-2-oxoethylidene)amino)oxy)-2-methylpropanoic acid] | 8 (≈ 14.2 µM) | 8 (≈ 14.2 µM) |  |
| CC(C)(O/N=C(\C(=O)N[C@@H]1C(=O)N(S(=O)(=O)O)[C@@H]1Cn1ncnc1CN)c1csc(N)n1)C(=O)O [Example 12, 2-(((Z)-(2-(((2R,3S)-2-((5-(aminomethyl)-1H-1,2,4-triazol-1-yl)methyl)-4-oxo-1-sulfoazetidin-3-yl)amino)-1-(2-aminothiazol-4-yl)-2-oxoethylidene)amino)oxy)-2-methylpropanoic acid] | 4 (≈ 7.53 µM) | 4 (≈ 7.53 µM) |  |
| CC(C)(N)CCNCc1cnn(C[C@@H]2[C@H](NC(=O)/C(=N\OC3(C(=O)O)CC3)c3csc(N)n3)C(=O)N2S(=O)(=O)O)n1 [Example 131, 1-(((Z)-(2-(((2R,3S)-2-((4-(((3-amino-3-methylbutyl)amino)methyl)-2H-1,2,3-triazol-2-yl)methyl)-4-oxo-1-sulfoazetidin-3-yl)amino)-1-(2-aminothiazol-4-yl)-2-oxoethylidene)amino)oxy)cyclopropanecarboxylic acid] | 1 (≈ 1.63 µM) | 2 (≈ 3.25 µM) |  |
| CC(C)(O/N=C(\C(=O)N[C@@H]1C(=O)N(S(=O)(=O)O)[C@@H]1Cn1ncc(CNS(N)(=O)=O)n1)c1csc(N)n1)C(=O)O [Example 65, 2-(((Z)-(1-(2-aminothiazol-4-yl)-2-oxo-2-(((3S,4R)-2-oxo-4-((4-((sulfamoylamino)methyl)-2H-1,2,3-triazol-2-yl)methyl)-1-sulfoazetidin-3-yl)amino)ethylidene)amino)oxy)-2-methylpropanoic acid] | 64 (≈ 105 µM) | 64 (≈ 105 µM) |  |
| CNCc1cnn(C[C@@H]2[C@H](NC(=O)/C(=N\OC(C)(C)C(=O)O)c3csc(N)n3)C(=O)N2S(=O)(=O)O)n1 [Example 100, 2-(((Z)-(1-(2-aminothiazol-4-yl)-2-(((2R,3S)-2-((4-((methylamino)methyl)-2H-1,2,3-triazol-2-yl)methyl)-4-oxo-1-sulfoazetidin-3-yl)amino)-2-oxoethylidene)amino)oxy)-2-methylpropanoic acid] | 1 (≈ 1.83 µM) | 4 (≈ 7.33 µM) |  |
| CNCCCNCc1cnn(C[C@@H]2[C@H](NC(=O)/C(=N\OC3(C(=O)O)CC3)c3csc(N)n3)C(=O)N2S(=O)(=O)O)n1 [Example 116, 1-(((Z)-(1-(2-aminothiazol-4-yl)-2-(((2R,3S)-2-((4-(((3-(methylamino)propyl)amino)methyl)-2H-1,2,3-triazol-2-yl)methyl)-4-oxo-1-sulfoazetidin-3-yl)amino)-2-oxoethylidene)amino)oxy)cyclopropanecarboxylic acid] | 0.25 (≈ 0.416 µM) | 0.125 (≈ 0.208 µM) |  |
| CC(C)(O/N=C(\C(=O)N[C@@H]1C(=O)N(S(=O)(=O)O)[C@@H]1Cn1cnc(C#N)n1)c1csc(N)n1)C(=O)O [Example 105, 2-(((Z)-(1-(2-aminothiazol-4-yl)-2-(((2R,3S)-2-((3-cyano-1H-1,2,4-triazol-1-yl)methyl)-4-oxo-1-sulfoazetidin-3-yl)amino)-2-oxoethylidene)amino)oxy)-2-methylpropanoic acid] | 16 (≈ 30.3 µM) | 32 (≈ 60.7 µM) |  |
| Nc1nc(/C(=N/OC2(C(=O)O)CC2)C(=O)N[C@@H]2C(=O)N(S(=O)(=O)O)[C@@H]2Cn2ncc(CSC3Cn4cnc[n+]4C3)n2)cs1 (stereo partly drawn) [Example 139, (2R,3S)-3-((Z)-2-(2-aminothiazol-4-yl)-2-((1-carboxycyclopropoxy)imino)acetamido)-2-((4-(((6,7-dihydro-5H-pyrazolo[1,2-a][1,2,4]triazol-4-ium-6-yl)thio)methyl)-2H-1,2,3-triazol-2-yl)methyl)-4-oxoazetidine-1-sulfonate] | 1 | 4 |  |
| NCCCNCc1cn(C[C@@H]2[C@H](NC(=O)/C(=N\OC3(C(=O)O)CC3)c3csc(N)n3)C(=O)N2S(=O)(=O)O)nn1 [Example 69, 1-(((Z)-(2-(((2R,3S)-2-((4-(((3-aminopropyl)amino)methyl)-1H-1,2,3-triazol-1-yl)methyl)-4-oxo-1-sulfoazetidin-3-yl)amino)-1-(2-aminothiazol-4-yl)-2-oxoethylidene)amino)oxy)cyclopropanecarboxylic acid compound with formic acid (1:1)] |  | 0.125 (≈ 0.213 µM) | 0.25 (≈ 0.426 µM) |
| Nc1nc(/C(=N/OC2(C(=O)O)CC2)C(=O)N[C@@H]2C(=O)N(S(=O)(=O)O)[C@@H]2Cn2ncc(CN3CCC(N)CC3)n2)cs1 [Example 138, 1-(((Z)-(2-(((2R,3S)-2-((4-((4-aminopiperidin-1-yl)methyl)-2H-1,2,3-triazol-2-yl)methyl)-4-oxo-1-sulfoazetidin-3-yl)amino)-1-(2-aminothiazol-4-yl)-2-oxoethylidene)amino)oxy)cyclopropanecarboxylic acid] | 0.5 (≈ 0.816 µM) | 1 (≈ 1.63 µM) |  |
| CC(C)(O/N=C(\C(=O)N[C@@H]1C(=O)N(S(=O)(=O)O)[C@@H]1Cn1nnc(CNC(=N)N)n1)c1csc(N)n1)C(=O)O [Example 5, 2-(((Z)-(1-(2-aminothiazol-4-yl)-2-(((2R,3S)-2-((5-(guanidinomethyl)-2H-tetrazol-2-yl)methyl)-4-oxo-1-sulfoazetidin-3-yl)amino)-2-oxoethylidene)amino)oxy)-2-methylpropanoic acid] | 1 (≈ 1.74 µM) | 4 (≈ 6.96 µM) |  |
| CC(C)(O/N=C(\C(=O)N[C@@H]1C(=O)N(S(=O)(=O)O)[C@@H]1Cn1ncc(CN)n1)c1csc(N)n1)C(=O)O [Example 52, 2-(((Z)-(2-(((2R,3S)-2-((4-(aminomethyl)-2H-1,2,3-triazol-2-yl)methyl)-4-oxo-1-sulfoazetidin-3-yl)amino)-1-(2-aminothiazol-4-yl)-2-oxoethylidene)amino)oxy)-2-methylpropanoic acid] | 0.5 (≈ 0.941 µM) | 1 (≈ 1.88 µM) |  |
| CN(Cc1ccccc1)Cc1cnn(C[C@@H]2[C@H](NC(=O)/C(=N\OC(C)(C)C(=O)O)c3csc(N)n3)C(=O)N2S(=O)(=O)O)n1 [Example 83, 2-(((Z)-(1-(2-aminothiazol-4-yl)-2-(((2R,3S)-2-((4-((benzyl(methyl)amino)methyl)-2H-1,2,3-triazol-2-yl)methyl)-4-oxo-1-sulfoazetidin-3-yl)amino)-2-oxoethylidene)amino)oxy)-2-methylpropanoic acid] | 32 (≈ 50.3 µM) | 32 (≈ 50.3 µM) |  |
